Assay results from ChEMBL document CHEMBL1201862, “PubChem BioAssay data set” (2004).
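1) Cells in 96-well plates. 2) Compound, 48 h, 5 concentrations. 3) Linear interpolation between surrounding doses. 4) Unreached endpoint = highest concentration. GI50: concentration for 50% inhibition of growth.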 The source made the active and inactive calls. Cut-off read from the data, not from the text of the source: active = GI50 up to about 1.1 µM and inactive = higher.

Key:
Assay in all cases: DTP human tumour cell line panel, 48 h
[1] = tested on: HCT-116
[2] = tested on: SF-268
[3] = tested on: OVCAR-3
[4] = tested on: SN12C
[5] = tested on: SNB-75
[6] = tested on: NCI-H522
[7] = tested on: SR
[8] = tested on: UACC-257
[9] = tested on: OVCAR-4
[10] = tested on: UO-31
[11] = tested on: NCI-H23
[12] = tested on: RXF 393
[13] = tested on: HT-29
[14] = tested on: LOX IMVI
[15] = tested on: UACC-62
[16] = tested on: M14
[17] = tested on: NCI-H226
[18] = tested on: SK-MEL-2
[19] = tested on: A498

Measured: GI50

COc1ccc(-c2cc(O)c3cc(OC)ccc3n2)cc1
inactive: [1] > 100 µM | [2] 36.6 µM | [3] > 100 µM | [4] > 100 µM | [5] 92.9 µM | [6] > 100 µM | [7] > 100 µM | [8] > 100 µM | [9] > 100 µM | [10] > 100 µM | [11] > 100 µM | [12] > 100 µM | [13] > 100 µM | [14] > 100 µM | [15] > 100 µM | [16] > 100 µM | [17] > 100 µM

CC1=C(C(=O)CC(=O)C(=O)Nc2ccccc2C(F)(F)F)Sc2ccccc2N1
inactive: [18] > 100 µM | [1] 34.8 µM | [2] 15.7 µM | [3] 25.4 µM | [4] 56.4 µM | [5] 4.23 µM | [6] 24.5 µM | [19] > 100 µM | [8] 42.2 µM | [9] 29.3 µM | [10] 25.4 µM | [11] 22.1 µM | [12] 15.8 µM | [13] > 100 µM | [14] 59.3 µM | [15] 38.5 µM | [16] 52.4 µM | [17] 15.6 µM

CN(C)CCCNC(=O)c1cc(NC(=O)CCCn2c3ccccc3c3ccccc32)cn1C
inactive: [18] 34.8 µM | [1] 25.9 µM | [2] 66.7 µM | [3] 11.5 µM | [4] 48.5 µM | [5] 43 µM | [19] 17.7 µM | [9] 43.1 µM | [10] 25.5 µM | [11] 31.8 µM | [12] 32.8 µM | [13] 47.6 µM | [14] 31 µM | [15] 20.8 µM | [16] 28.1 µM | [17] 25.3 µM

CCOC(=O)c1ccc(/N=N/c2cc(C(=O)OCC)ccc2O)cc1
inactive: [1] > 100 µM | [2] > 100 µM | [4] > 100 µM | [6] 41.9 µM | [19] 68.9 µM | [10] > 100 µM | [11] > 100 µM | [12] > 100 µM | [13] 43.6 µM | [14] > 100 µM | [15] > 100 µM | [16] > 100 µM

CC1(C)C2C/C(=C\c3ccccc3)C(=O)C1C2 (centres undefined)
inactive: [18] > 100 µM | [1] 90.4 µM | [2] 79.8 µM | [3] > 100 µM | [4] > 100 µM | [5] 25.1 µM | [6] 40.9 µM | [19] > 100 µM | [8] 58.1 µM | [9] > 100 µM | [10] 31.1 µM | [11] 55.8 µM | [12] 27.6 µM | [13] 87.9 µM | [14] > 100 µM | [15] > 100 µM | [16] > 100 µM

CC(=O)OC1c2ccccc2CCCCCCC12OCCO2 (centres undefined)
inactive: [18] > 100 µM | [1] > 100 µM | [2] > 100 µM | [3] 33 µM | [4] > 100 µM | [5] > 100 µM | [6] 50.9 µM | [19] > 100 µM | [8] 55.5 µM | [9] > 100 µM | [10] > 100 µM | [11] > 100 µM | [12] > 100 µM | [13] > 100 µM | [14] > 100 µM | [15] > 100 µM | [16] 86.5 µM | [17] > 100 µM

O=c1c2cc(Br)cc(Br)c2nc(CCCl)n1CCO
inactive: [18] > 100 µM | [1] > 100 µM | [2] 47.1 µM | [3] 52.2 µM | [4] 97.5 µM | [5] 22.6 µM | [6] 62.4 µM | [19] 25 µM | [8] 72.9 µM | [9] 52.8 µM | [10] 34.7 µM | [11] 49.9 µM | [12] 47.4 µM | [13] > 100 µM | [14] > 100 µM | [15] 60.8 µM | [16] 97.7 µM | [17] 39 µM

CC(=O)OCCOCNC(=S)N/N=C/c1ccc(Br)s1
inactive: [18] > 100 µM | [1] 55 µM | [2] > 100 µM | [3] > 89.1 µM | [4] > 100 µM | [5] > 100 µM | [6] 8.17 µM | [19] > 100 µM | [8] > 100 µM | [9] > 93.3 µM | [10] > 100 µM | [11] > 100 µM | [12] > 100 µM | [13] > 100 µM | [14] 77.1 µM | [15] > 100 µM | [16] > 100 µM | [17] > 100 µM
